This note sets out measurements from US9067928B2 (Genentech, Inc., priority 2008, dated 2015).

In one assay the target is T1, Bcl-xL (Homo sapiens, UniProt Q07817).
T1 construct: made in house
Nature of the assay: Alpha Screen Bcl-xL binding assay, competition with Bim26-mer. Particulars: values listed in the order of Table 1; read-out: Alphascreen results (IC50). The protocol: The measurement of competition of compounds of the invention with Bim26-mer for a Bcl-2 family protein binding site using an Alpha Screen Bcl-xL Binding Assay:
The BH3 proteins ALPHASCREEN™ assay was used to identify active small molecules Bcl-2 family protein screen. e.g., Bcl-xL, hmMcl-1 screen. To determine an accurate estimation of the IC50, the compounds were routinely tested at starting concentrations, 100 μM and/or 1 μM and serially titrated 3 fold over 11 dilutions.
The beads come in close proximity when the protein and the peptides interact. Donor beads contain a photosensitiser that converts oxygen to an excited form of O2 at an excitation of 680 nm. Energy is transformed from the singlet oxygen and reacts with chemiluminescers on the acceptor bead, resulting in light emission at 520-620 nm. […] With this information, the IC50 of each compound was calculated
GST-Bcl-xL, GST-hmMcl-1 and biotinylated GST proteins were prepared in-house and were stored as stock solutions at −80° C. The biotinylated-Bak, and biotinylated-Bim peptides were purchased from Auspep and were stored as 500 μM stock solutions in 100% DMSO at −80° C. The ALPHASCREEN™ GST (Glutathione-S-Transferase) Detection Kit was obtained from Perkin Elmer Lifesciences (Cat #6760603R). The Proxiplates, white 384 well flat-Bottom plates were purchased from Interpath Services, Melbourne (Cat #784075). The seals to cover the plates were purchased from Proscience. Melbourne (Cat#784075). DMSO was purchased from AnalaR. The 384 deep well plates and the Polypropylene 50 μL, V bottom polypropylene compound plates were purchased from Matrical.
Compounds of the invention were prepared as 10 mM stocks with 100% DMSO on the day prior to performing the assay. […] To achieve a final compound concentration of 1 μM, in a separate matrical plate, 28 μL of 100% DMSO and 2 μL of 10 mM compound was added to a well, mixed well. 2 μL of this solution was taken and added to 38 μL of 100% DMSO. 20 μL of this solution was added to the test matrical plate. Several control compounds were included in the test plates. For the control wells 15 μL 100% DMSO only was added to the appropriate wells of each plate. The compound plates were then serially diluted 2 fold using the MiniTrak. Once titrations were complete, the compound plate was immediately covered with a foil seal to prevent evaporation.
The assay and bead buffers were prepared fresh. Each titrated compound plate was assayed in duplicate. The following volumes were sufficient to run 12 Proxiplates (4 assay plates run in duplicate in each of Bclxl, hmMcl and counter assays)
Protein and Peptide Preparation; and Assay Performance • 1. The assay and bead buffers were used to prepare the acceptor and donor solutions. ALPHASCREEN™ beads are light sensitive and therefore prepared in a darkened room. 2.5 μL of beads were added per 1 mL of buffer. • 2. The volume of protein or peptide to add was calculated using the following formula:
[formula] • C1=Final Concentration of protein/peptide • C2=Stock Concentration of protein/peptide • V1=Total Volume of Acceptor/Donor Solution • V2=Volume of stock protein/Peptide to add to Acceptor/Donor solution • 3. The assay components were prepared as separate Acceptor and Donor Solutions. The Acceptor Solution contained Acceptor heads and target protein, while the Donor Solution contained Donor beads and biotinylated peptide.
• 4. After the solutions were prepared, they were left to incubate for 30 minutes at room temperature to allow the beads to bind to the protein and the peptide. • 5. 50 μL of Bcl-xL solution, 50 μL of hmMcl-1 solution and 50 µL of biotinylated-GST were added into separate deep wells on an assay plate. A control […]. Assay/Bead buffer was added separate well plates (no protein). • 6.

In assay [1] the test system is Mcl-1-/- mouse embryonic fibroblasts (MEF). The assay is described as follows: Cell viability assay for Mcl-1-/- mouse embryonic fibroblasts (CellTiter-Glo). The following applies: Fibroblast, 1% Fetal Bovine Serum, read-out: MEF Mcl-1-/- KO cell viability results (EC50). Format: cell-based. The source says: a. Cell Viability Assay for Mcl-1^−/− Mouse Embryonic Fibroblasts (MEF):
Neutralization of both […] and Mcl-1 anti-apoptotic proteins in normal cells is required before a cell undergoes apoptosis via the downstream Bax/Bak pathway See, Chen. L. et al. Mol. Cell (2005) 17, 393-403; Willis, S. N. et al. Genes Dev. (2005) 19, 1294-1305. A compound that only targets Bcl-xL should not affect normal cells, but could kill certain cancer cells if they rely more on Bcl-xL and less on other anti-apoptotic proteins, e.g. Mcl-1, for survival. To mirror this, compounds of the invention were tested for its effect on survival of wild type (wt) mouse embryo fibroblasts (MEFs), Bax/Bak double knockout (BB DKO) MEFs, MEFs that expressed Noxa, and MEFs that expressed Bad. Noxa specifically neutralizes Mcl-1. […] MEFs that express Noxa mirror cancer cell types that are reliant on Bcl-xL for survival and should be much more sensitive to killing by a Bcl-xL targeting compound than MEFs where both Bcl-xL and Mcl-1 are protective.
In this assay, Mcl-1^(−/−) cells were used to confirm that cell apoptosis in the presence of BH3 mimetic small molecules was due to predominantly Bcl-xL inactivation. This inactivation leaves Bax/Bak unconstrained and results in apoptosis. The […]-GLO Luminescent Cell Viability Assay is a homogeneous method of determining the number of viable cells in culture based on quantitation of the ATP present. The amount of ATP correlates with the presence of metabolically active cells such that following cell lysis the amount of ATP present is proportional to the amount of luminescence measured.
Mcl-1^(−/−) mouse embryonic fibroblasts (MEFs) are an adherent cell line prepared in house. MEFs were grown in Iwaki 75 cm^2 tissue culture flasks (cat #3123-075) with FMA media which consists of: • 89% DME Kelso • 10% heat-inactivated foetal calf serum (FCS) (Hyclone cat #SH30396.03) • 1% 10 mM asparagine (Fluka cat #11149) • 275 μl of a 1:2000 dilution of 2-mercaptoethanol is added to the final 500 ml volume of FMA (Sigma cat #M7522; diluted in MT-PBS)
FMA was stored at 4° C. and used at 37° C. MEFs were cultured in FMA media and harvested in MT-PBS and trypsin. For MEF cell viability assays, cells were seeded separately in plates with 10% FCS-FMA and 1% FCS-FMA. […]
Automated Systems that can be used in this assay include: 1) Multidrop—The MULTIDROP 384 (ThermoLabsystems) dispenser was used to dispense cells aseptically into the assay plates: 2) MiniTrak—The […] system from Perkin Elmer was used for titration of the compound plates; 3) Zymark—The ZYMARK SCICLONE ALH3000 System with 100 nL pintool head was used for compound addition to the cells; 4) EnVision—The ENVISION plate reader was used to measure the viability via the detection of the luminescence. […]

T1 sequence (Q07817 whole entry, species assumed): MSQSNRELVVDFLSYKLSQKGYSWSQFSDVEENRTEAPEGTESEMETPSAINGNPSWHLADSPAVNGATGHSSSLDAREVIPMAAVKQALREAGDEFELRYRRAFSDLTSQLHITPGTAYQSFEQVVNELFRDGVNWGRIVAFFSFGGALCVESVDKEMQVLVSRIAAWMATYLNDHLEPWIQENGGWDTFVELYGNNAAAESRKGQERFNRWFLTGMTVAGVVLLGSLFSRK

As for `O=C(O)c1nc(-c2ccc3c(c2)N(C(=O)Nc2nc4ccccc4s2)CCC3)ccc1OCCCc1ccccc1` [Example 90, 6-(1-(benzo[d]thiazol-2-ylcarbamoyl)-1,2,3,4-tetrahydroquinolin-7-yl)-3-(3-phenylpropoxy)picolinic acid], the IC50 at Bcl-xL came out at 10 nM. In assay [1], the EC50 was found to be 590 nM.
As for `O=C(O)c1nc(-c2ccc3c(c2)N(C(=O)Nc2nc4ccccc4s2)CCC3)sc1/C=C/c1ccccc1` [Example 74, (E)-2-(1-(benzo[d]thiazol-2-ylcarbamoyl)-1,2,3,4-tetrahydroquinolin-7-yl)-5-styrythiazole-4-carboxylic acid], the IC50 on Bcl-xL came to 3 nM. Besides, in assay [1], the EC50 is 60 nM.
The matching figures for `CC(C)Oc1ccc(-c2sc(-c3ccc4c(c3)N(C(=O)Nc3nc5ccccc5s3)CCC4)nc2C(=O)O)cc1` [Example 79, 2-(1-(benzo[d]thiazol-2-ylcarbamoyl)-1,2,3,4-tetrahydroquinolin-7-yl)-5-(4-isopropoxyphenyl)thiazole-4-carboxylic acid]: 6 nM and 210 nM.

A word on the IC50: it is the concentration that inhibits the measured activity by half.
